The values below come from US4699897A, “Biologically active peptides structurally related to regions within growth hormones” (Amgen, priority 1983, dated 1987).

Square brackets hold non-standard residues; d marks the D form. Peptide text beside a SMILES is read from it.

Test [1] deals with normal male Sprague-Dawley rats. Description: Insulin potentiating effects in normal rats (plasma glucose after i.p. glucose load). Type of test: in vivo, rat. The settings on record: for Plasma Glucose (mg/dL at 60 min.), Glucose + Insulin + Peptide: rats fasted 18 h, i.p. 1.0 ml 0.75M glucose + 15 mU insulin + 25 μg peptide, mean ± standard error. As to the method: A study was conducted to determine insulin potentiating effects of Peptide Nos. 3, 5, and 6. Also tested was a dipeptide NH2 -Ile-Pro-COOH, a dipeptide outside the scope of the invention. Test groups of 5 normal male Sprague-Dawley rats weighing about 200 grams were fasted for 18 hours and received (intraperitoneally in rapid succession) 1.0 ml of 0.75M glucose, and either 15 mU of insulin with 1% bovine serum ablumin in normal saline (pH 7.4) or a mixture of insulin as above with 25 μg Peptide Nos. 3, 5, 6 and dipeptide. Controls received only bovine serum albumin and saline. Blood was drawn after one hour and plasma glucose levels were determined.

For test [2], the system named is normal female Rhesus monkeys. The test is described as follows: Insulin potentiating effects in primates of Peptide No. 6 compared to deletion peptide (plasma glucose). The format is in vivo, Rhesus monkey. Here is the method:
In a manner analogous to Study C, above, Peptide No. 6 and deletion peptide were studied for insulin potentiating effects in Rhesus monkeys. Blood samples were drawn from normal female monkeys (in […] experimental groups of 3) five minutes before administration of an oral dose of 3.0 ml/kg of 0.5 g/ml glucose and intramuscular administration of either: (1) 0.5 ml/kg phosphate buffered saline (PBS), pH 7.4; (2) deletion peptide 0.1 ml/kg of 1.0 mg/ml solution in PBS; (3) deletion peptide as above combined with 0.5 ml/kg of 20 mU/ml insulin in PBS; or (4) insulin alone as above or (5) Peptide No. 6 0.1 ml/kg of a 0.5 mg/ml solution in PBS combined with insulin as above. Blood samples were then periodically withdrawn over two hours and analyzed for plasma glucose levels.

In another test the test system is db/db mice. Description: Insulin potentiating effects on genetically altered mice at differing ages (plasma glucose). The format is in vivo, mouse. To be noted: for Plasma Glucose (mg/dL at 60 min.), Age: 8 weeks, Glucose + Insulin + Peptide: db/db mice aged 8 weeks; for Plasma Glucose (mg/dL at 60 min.), Age: 8 weeks, Glucose + Insulin + Peptide / Plasma Glucose (mg/dL at 60 min.), Age: 14 weeks, Glucose + Insulin + Peptide: i.p. glucose + insulin 0.001 mU/10 g + peptide 5 μg/10 g; for Plasma Glucose (mg/dL at 60 min.), Age: 14 weeks, Glucose + Insulin + Peptide: db/db mice aged 14 weeks. As to the method: A study was conducted to ascertain insulin potentiating effects of Peptide Nos. 6, 9 and 10 on db/db mice aged 8 weeks and 14 weeks.
Test groups of 5 each of db/db mice weighing from 40 to 60 grams each were used. Glucose was administered intraperitoneally at a dosage of […] of a solution containing 135 mg/ml glucose. Insulin was intraperitoneally administered at a dose of 0.001 mU/10 g and Peptide Nos. 6, 9 and 10 were each simultaneously administered at a dose of 5 μg/10 g.

A further test relates to Sprague-Dawley rats. The test is described as follows: Insulin potentiating effects of Peptide No. 6 compared to DP in rats (plasma glucose). Type of test: in vivo. To be noted: for Plasma Glucose (mg/dL at 60 min.), Glucose + Insulin + peptide, Rat (normal): i.p. glucose + insulin 0.001 mU/10 g + peptide 5 μg/10 g. As to the method:
(§1) A study was conducted to determine the relative insulin potentiating effects of Peptide No. 6 as compared to those of deletion peptide ("hGH32-46 ").
(§2) Animals in test groups of five each were meployed in these procedures. Sprague-Dawley rats weighed approximately 200 grams; homozygous genetically abnormal mice (db/db and ob/ob) had weights in the range of 40 to 60 grams; heterozygous normal mice all weighed approximately 25 grams. Glucose was administered intraperitoneally at a dosage of […] of a solution containing 135 mg/ml glucose, except for one group of rats which were given an oral dose of 1 ml of 270 mg/ml glucose solution. Insulin was intraperitoneally administered at a dose of 0.001 mU/10 g and both Peptide No. 6 and deletion peptide were administered were simultaneously administered at a dose of 5 μg/10 g.

For test [3], the system named is ob/ob, ob/+, db/db and db/m mice. The test is described as follows: Insulin potentiating effects of Peptide No. 6 compared to DP in mice (plasma glucose). The settings on record: for Plasma Glucose (mg/dL at 60 min.), Glucose + Insulin + peptide, Mouse db/db / Plasma Glucose (mg/dL at 60 min.), Glucose + Insulin + peptide, Mouse db/m (normal) / Plasma Glucose (mg/dL at 60 min.), Glucose + Insulin + peptide, Mouse ob/+ (normal) / Plasma Glucose (mg/dL at 60 min.), Glucose + Insulin + peptide, Mouse ob/ob: i.p. glucose + insulin 0.001 mU/10 g + peptide 5 μg/10 g. The format is in vivo, mouse. As to the method: as §1, §2

Test [4] relates to GT-impaired strain of mice (YS/Wf Nctr). The settings on record: cited from earlier work.
In test [5] the test system is insulin-stimulated fat cells of older obese rats. To be noted: cited from earlier work.
Test [6] concerns various model animal test systems. The settings on record: cited from earlier work.
Test [7] relates to normal rats. The settings on record: cited from earlier work.
Another test has as its system rabbits. The settings on record: cited from earlier work.
The subject of test [8] is normal rats. To be noted: cited from earlier work. The source holds these as a separate data set.

Take `CC[C@H](C)[C@H](N)C(=O)N1CCC[C@H]1C(=O)O` [NH2 --Ile--Pro--COOH, NH2 -Ile-Pro-COOH] (H-Ile-Pro-OH): in test [1], the Plasma Glucose (mg/dL at 60 min.), Glucose + Insulin + Peptide was 95 ± 30 mg/dL.
Regarding `CC[C@H](C)[C@H](NC(=O)[C@H](Cc1ccc(O)cc1)NC(=O)[C@H](C)NC(=O)[C@H](CCC(=O)O)NC(=O)[C@@H](N)CCC(=O)O)C(=O)N1CCC[C@H]1C(=O)N[C@@H](CCCCN)C(=O)O` [Peptide No. 6, GLU--GLU--ALA--TYR--ILE--PRO--LYS] (H-EEAYIPK-OH), in [1] (normal rats, Table III), the “insulin potentiating effect (in words)” value was “exceptionally active insulin potentiator”. Moreover, in [1], the Plasma Glucose (mg/dL at 60 min.), Glucose + Insulin + Peptide was determined as 52 ± 28 mg/dL. In addition, the Plasma Glucose (mg/dL), Glucose + Insulin + Peptide No. 6, +5 min. in [2] (+5 min., oral glucose + i.m. insulin + peptide 0.1 ml/kg of 0.5 mg/ml) is 62 ± 6 mg/dL. In test [2] (+15 min., oral glucose + i.m. insulin + peptide 0.1 ml/kg of 0.5 mg/ml), the Plasma Glucose (mg/dL), Glucose + Insulin + Peptide No. 6, +15 min. stood at 69.5 ± 6 mg/dL. Also, the Plasma Glucose (mg/dL), Glucose + Insulin + Peptide No. 6, +30 min. in [2] (+30 min., oral glucose + i.m. insulin + peptide 0.1 ml/kg of 0.5 mg/ml) came to 68 ± 9.7 mg/dL. For the same molecule, the Plasma Glucose (mg/dL), Glucose + Insulin + Peptide No. 6, +45 min. in test [2] (+45 min., oral glucose + i.m. insulin + peptide 0.1 ml/kg of 0.5 mg/ml) came to 73 ± 3.5 mg/dL. The Plasma Glucose (mg/dL), Glucose + Insulin + Peptide No. 6, +60 min. in test [2] (+60 min., oral glucose + i.m. insulin + peptide 0.1 ml/kg of 0.5 mg/ml) worked out at 79 ± 6.5 mg/dL. Moreover, in [2] (+120 min., oral glucose + i.m. insulin + peptide 0.1 ml/kg of 0.5 mg/ml), the Plasma Glucose (mg/dL), Glucose + Insulin + Peptide No. 6, +120 min. stood at 88 ± 12 mg/dL. For the same molecule, in test [2] (Table VI), the “insulin potentiating effect relative to deletion peptide (in words)” value is given as “essentially on par with, or superior on a weight basis to, those of deletion peptide”. In addition, the “insulin potentiating effect (in words)” value in the test on db/db mice (db/db mice aged 8 and 14 weeks, Table IV) is given as “significant effectiveness”. Also, in the test with db/db mice, the Plasma Glucose (mg/dL at 60 min.), Age: 8 weeks, Glucose + Insulin + Peptide was found to be 92.3 ± 12 mg/dL and the Plasma Glucose (mg/dL at 60 min.), Age: 14 weeks, Glucose + Insulin + Peptide is 124 ± 34 mg/dL. For the same molecule, in the test with Sprague-Dawley rats, the Plasma Glucose (mg/dL at 60 min.), Glucose + Insulin + peptide, Rat (normal) was determined as 52 ± 6 mg/dL. For the same molecule, in test [3], the Plasma Glucose (mg/dL at 60 min.), Glucose + Insulin + peptide, Mouse db/db came to 109 ± 22 mg/dL; the Plasma Glucose (mg/dL at 60 min.), Glucose + Insulin + peptide, Mouse db/m (normal) is 22 ± 10 mg/dL; the Plasma Glucose (mg/dL at 60 min.), Glucose + Insulin + peptide, Mouse ob/+ (normal) was 28.5 ± 5 mg/dL; the Plasma Glucose (mg/dL at 60 min.), Glucose + Insulin + peptide, Mouse ob/ob came to 118 ± 20 mg/dL. Also, the “insulin potentiating effect relative to deletion peptide (in words)” value in test [3] (mice and rats, Table V) is given as “uniformly more effective in potentiating insulin effects than deletion peptide alone”.
With `CC[C@H](C)[C@H](NC(=O)[C@H](Cc1ccc(O)cc1)NC(=O)[C@@H](C)NC(=O)[C@H](CCC(=O)O)NC(=O)[C@@H](N)CCC(=O)O)C(=O)N1CCC[C@H]1C(=O)N[C@@H](CCCCN)C(=O)O` [Peptide No. 9] (H-EE[dA]YIPK-OH), in the test on db/db mice, the Plasma Glucose (mg/dL at 60 min.), Age: 8 weeks, Glucose + Insulin + Peptide was determined as 90.8 ± 16 mg/dL and the Plasma Glucose (mg/dL at 60 min.), Age: 14 weeks, Glucose + Insulin + Peptide came out at 228 ± 38 mg/dL.
On to `CC[C@H](C)[C@H](NC(=O)[C@H](Cc1ccc(O)cc1)NC(=O)[C@H](C)NC(=O)[C@H](CCC(=O)O)NC(=O)[C@@H](N)CCC(=O)O)C(=O)N1CCC[C@H]1C(=O)N[C@@H](CCCCN)C(=O)N[C@@H](CCC(=O)O)C(=O)N[C@@H](CCC(N)=O)C(=O)N[C@@H](CCCCN)C(=O)N[C@@H](Cc1ccc(O)cc1)C(=O)N[C@@H](CO)C(=O)N[C@@H](Cc1ccccc1)C(=O)N[C@@H](CC(C)C)C(=O)N[C@@H](CCC(N)=O)C(=O)O` [hGH32-46, NH2 -Glu-Glu-Ala-Tyr-Ile-Pro-Lys-Glu-Gln-Lys-Tyr-Ser-Phe-Leu-Gln-COOH] (H-EEAYIPKEQKYSFLQ-OH), for which the glucose tolerance result in test [4] is reported as “unspecified degree of improvement in glucose tolerance”. Also, in test [5] (insulin-stimulated fat cells of older obese rats, Frigeri et al.), the “in vitro glucose utilization of fat cells” value is reported as “in vitro increase in glucose utilization”. Also, the “potentiation of insulin activity” value in [6] (contemporaneously administered with exogenous insulin) is “potentiate insulin activity and augment the hypoglycemic effectiveness of even quite small parenteral doses of insulin”. In addition, in test [6] (various model animal test systems), the “hypoglycemic effects of the peptide alone” value was “lacked hypoglycemic effects”. The Plasma Glucose (mg/dL), Glucose + Insulin + hGH32-46, +5 min. in test [2] (+5 min., oral glucose + i.m. insulin + peptide 0.1 ml/kg of 1.0 mg/ml) was found to be 64 ± 4 mg/dL. For the same molecule, the Plasma Glucose (mg/dL), Glucose + Insulin + hGH32-46, +15 min. in [2] (+15 min., oral glucose + i.m. insulin + peptide 0.1 ml/kg of 1.0 mg/ml) is 69 ± 9 mg/dL. Further, the Plasma Glucose (mg/dL), Glucose + Insulin + hGH32-46, +30 min. in test [2] (+30 min., oral glucose + i.m. insulin + peptide 0.1 ml/kg of 1.0 mg/ml) came out at 80 ± 5.3 mg/dL. For the same molecule, in test [2] (+45 min., oral glucose + i.m. insulin + peptide 0.1 ml/kg of 1.0 mg/ml), the Plasma Glucose (mg/dL), Glucose + Insulin + hGH32-46, +45 min. is 80 ± 5.9 mg/dL. Also, the Plasma Glucose (mg/dL), Glucose + Insulin + hGH32-46, +60 min. in test [2] (+60 min., oral glucose + i.m. insulin + peptide 0.1 ml/kg of 1.0 mg/ml) was 96 ± 8 mg/dL. In test [2] (+120 min., oral glucose + i.m. insulin + peptide 0.1 ml/kg of 1.0 mg/ml), the Plasma Glucose (mg/dL), Glucose + Insulin + hGH32-46, +120 min. amounted to 97 ± 6.6 mg/dL. The Plasma Glucose (mg/dL at 60 min.), Glucose + Insulin + peptide, Rat* (normal) in the test with Sprague-Dawley rats (glucose administered orally (1 ml of 270 mg/ml) + insulin 0.001 mU/10 g + peptide 5 μg/10 g) is 93.3 ± 14 mg/dL. Moreover, the Plasma Glucose (mg/dL at 60 min.), Glucose + Insulin + peptide, Rat (normal) with Sprague-Dawley rats is 73 ± 10 mg/dL. In addition, in the test on normal rats [7], the “late increases in free fatty acids and glycemic effects” value is listed as “did not show either the late increases in free fatty acids nor the glycemic effects which are characteristic of intact hGH”. Besides, in test [3], the Plasma Glucose (mg/dL at 60 min.), Glucose + Insulin + peptide, Mouse db/db is 134 ± 13 mg/dL; the Plasma Glucose (mg/dL at 60 min.), Glucose + Insulin + peptide, Mouse db/m (normal) is 49 ± 12 mg/dL; the Plasma Glucose (mg/dL at 60 min.), Glucose + Insulin + peptide, Mouse ob/+ (normal) stood at 56 ± 9 mg/dL; the Plasma Glucose (mg/dL at 60 min.), Glucose + Insulin + peptide, Mouse ob/ob was 138 ± 11 mg/dL.
With “synthetic tetradecapeptide having a sequence of amino acids copying residues at positions 31 through 44: literature tetradecapeptide copying hGH residues 31 through 44 (Yudaev et al.) (FEEAYIPKEQKYSF; UniProt P01241 57-70, looked up, fragment)”, in [5] (Yudaev et al. 1983), the “in vitro effect on fat cells” value is reported as “substantially the same in vitro effect on fat cells”. The “in vivo hypoglycemic effect” value in the test on rabbits and in the test on normal rats [8] was “absence of any in vivo hypoglycemic effect” throughout.
